# Test results published in the supplement of paper PMC10307832.
# Key:
# Experiment in all cases: relative viability (nuclei count vs DMSO), 5 days (fraction); higher = more cells survive
# [1] = compound: C1/C(=C\C2=CC=CS2)/C(=O)/C(=C/C3=CC=CS3)/C1 + COc1cccc2cc(-c3nc([C@H]4CC[C@H](C(=O)O)CC4)n4ncnc(N)c34)[nH]c12 [OSI-027] (partner 0.5 µM)
# Outline: (§1)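 After 5 days of treatment, lung cancer cells in 1536-well plates were fixed and stained in a single step (final 0.05% Triton X-100, 1% formaldehyde, 1 ug/ml Hoechst) and their nuclei counted on 4× images. Treatment had been applied by pin tool the day after seeding as one drug alone or as a fixed anchor-drug dose with five library-drug doses (not always all listed) in √10 steps. Relative viability is the nuclei count of treated wells divided by that of vehicle wells, and values are medians of duplicate plates.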
# [2] = compound: C1/C(=C\C2=CC=CS2)/C(=O)/C(=C/C3=CC=CS3)/C1 + Cc1nc(Nc2ncc(C(=O)Nc3c(C)cccc3Cl)s2)cc(N2CCN(CCO)CC2)n1 [Dasatinib] (partner 0.075 µM)
# Outline: as §1
# [3] = compound: C1=CC(=CC=C1C2=CC(=C(S2)NC(=O)N)C(=O)N)F [TPCA-1] + CC(=O)Nc1cccc(-n2c(=O)n(C3CC3)c(=O)c3c(Nc4ccc(I)cc4F)n(C)c(=O)c(C)c32)c1 [Trametinib] (partner 0.02 µM)
# Outline: as §1
# [4] = compound: C1=CC(=CC=C1C2=CC(=C(S2)NC(=O)N)C(=O)N)F [TPCA-1] + N=C(N)NC(=N)NCCc1ccccc1 [Phenformin] (partner 250 µM)
# Outline: as §1
Cell Line,relative viability ([1]; first compound 0.2 µM),relative viability ([1]; first compound 0.6325 µM),relative viability ([1]; first compound 2 µM),relative viability ([1]; first compound 6.325 µM),relative viability ([1]; first compound 20 µM),relative viability ([2]; first compound 0.2 µM),relative viability ([2]; first compound 0.6325 µM),relative viability ([2]; first compound 2 µM),relative viability ([2]; first compound 6.325 µM),relative viability ([2]; first compound 20 µM),relative viability ([3]; first compound 0.04 µM),relative viability ([3]; first compound 0.1265 µM),relative viability ([3]; first compound 0.4 µM),relative viability ([3]; first compound 1.265 µM),relative viability ([3]; first compound 4 µM),relative viability ([4]; first compound 0.04 µM),relative viability ([4]; first compound 0.1265 µM),relative viability ([4]; first compound 0.4 µM),relative viability ([4]; first compound 1.265 µM),relative viability ([4]; first compound 4 µM)
HCC-15,0.769,0.684,0.683,0.548,0.665,0.692,0.61,0.65,0.489,0.586,0.402,0.372,0.347,0.346,0.311,0.578,0.479,0.509,0.435,0.275
NCI-H661,0.766,0.753,0.736,0.664,0.735,0.998,0.801,0.811,0.833,0.85,0.67,0.541,0.535,0.573,0.377,0.281,0.272,0.269,0.306,0.253
NCI-H2009,0.622,0.755,0.707,0.557,0.607,0.282,0.296,0.306,0.269,0.311,0.309,0.249,0.303,0.321,0.211,0.542,0.486,0.512,0.429,0.44
NCI-H522,0.793,0.715,0.841,0.518,0.727,0.901,0.854,1.01,0.834,0.919,0.872,0.737,0.901,0.766,0.6,0.67,0.611,0.504,0.776,0.621
